Columns and labels:
[1] = system: Spodoptera littoralis (Egyptian Cotton Leaf Worm); assay: Example B6: Spodoptera littoralis, spray on cotton leaf discs; assay type: in vivo; settings: foliar, 72 h, application rate of 200 ppm, L1 larvae, 3 days after infestation, read-out: control in at least one of the three categories (mortality, anti-feedant effect, or growth inhibition)
Procedure: Example B6: Spodoptera littoralis (Egyptian Cotton Leaf Worm)
Cotton leaf discs were placed onto agar in 24-well microtiter plates and sprayed with aqueous test solutions prepared from 10,000 ppm DMSO stock solutions. After drying the leaf discs were infested with five L1 larvae. The samples were assessed for mortality, anti-feeding effect, and growth inhibition in comparison to untreated samples 3 days after infestation. Control of Spodoptera littoralis by a test sample is given when at least one of the categories mortality, anti-feedant effect, and growth inhibition is higher than the untreated sample.

[2] = system: Plutella xylostella (Diamond Back Moth); assay: Example B4: Plutella xylostella, artificial diet, 24-well; assay type: in vivo; settings: 192 h, application rate of 200 ppm, eggs, 8 days after infestation, read-out: control in at least one of the two categories (mortality or growth inhibition)
Procedure: Example B4: Plutella xylostella (Diamond Back Moth)
24-well microtiter plates with artificial diet were treated with aqueous test solutions prepared from 10,000 ppm DMSO stock solutions by pipetting. After drying, Plutella eggs were pipetted through a plastic stencil onto a gel blotting paper and the plate was closed with it. The samples were assessed for mortality and growth inhibition in comparison to untreated samples 8 days after infestation.
(§1) The following compounds gave an effect of at least 80% control in at least one of the two categories (mortality or growth inhibition) at an application rate of 200 ppm: […]

[3] = system: Diabrotica balteata (Corn Root Worm); assay: Example B1: Diabrotica balteata, spray on maize sprouts; assay type: in vivo; settings: 96 h, application rate of 200 ppm, L2 larvae, 4 days after infestation, read-out: control in at least one of the two categories (mortality or growth inhibition)
Procedure: Example B1: Diabrotica balteata (Corn Root Worm)
Maize sprouts placed onto an agar layer in 24-well microtiter plates were treated with aqueous test solutions prepared from 10,000 ppm DMSO stock solutions by spraying. After drying, the plates were infested with L2 larvae (6 to 10 per well). The samples were assessed for mortality and growth inhibition in comparison to untreated samples 4 days after infestation.
as §1

[4] = system: Chilo suppressalis (Striped Rice Stemborer); assay: Example B3: Chilo suppressalis, artificial diet; assay type: in vivo; settings: 144 h, application rate of 200 ppm, L2 larvae, 6 days after infestation, read-out: control in at least one of the three categories (mortality, anti-feedant effect, or growth inhibition)
Procedure: Example B3: Chilo suppressalis (Striped Rice Stemborer)
24-well microtiter plates with artificial diet were treated with aqueous test solutions prepared from 10,000 ppm DMSO stock solutions by pipetting. After drying, the plates were infested with L2 larvae (6-8 per well). The samples were assessed for mortality, anti-feeding effect, and growth inhibition in comparison to untreated samples 6 days after infestation. Control of Chilo suppressalis by a test sample is given when at least one of the categories mortality, anti-feedant effect, and growth inhibition is higher than the untreated sample.

[5] = system: Spodoptera littoralis (Egyptian Cotton Leaf Worm); assay: Example B7: Spodoptera littoralis, uptake by lettuce roots from agar; assay type: in vivo; settings: 144 h, test rate of 12.5 ppm, absorbed by lettuce roots, eggs, 6 days after infestation, read-out: control in at least one of the three categories (mortality, anti-feeding, or growth inhibition)
Description: Example B7: Spodoptera littoralis (Egyptian Cotton Leaf Worm)
Test compounds were applied by pipette from 10,000 ppm DMSO stock solutions into 24-well plates and mixed with agar. Lettuce seeds were placed onto the agar and the multi well plate was closed by another plate which contained also agar. After 7 days the compound was absorbed by the roots and the lettuce grew into the lid plate. The lettuce leaves were then cut off into the lid plate. Spodoptera eggs were pipetted through a plastic stencil onto a humid gel blotting paper and the lid plate was closed with it. The samples were assessed for mortality, anti-feedant effect and growth inhibition in comparison to untreated samples 6 days after infestation.
The following compounds gave an effect of at least 80% control in at least one of the three categories (mortality, anti-feeding, or growth inhibition) at a test rate of 12.5 ppm: […]

[6] = system: Myzus persicae (Green Peach Aphid); assay: Example B10: Myzus persicae, sucrose solution, 96-well; assay type: in vivo; settings: 120 h, application rate of 50 ppm, 5 days after infestation
Description: Example B10: Myzus persicae (Green Peach Aphid)
Test compounds prepared from 10,000 ppm DMSO stock solutions were applied by a liquid handling robot into 96-well microtiter plates and mixed with a sucrose solution. Parafilm was stretched over the 96-well microtiter plate and a plastic stencil with 96 holes was placed onto the plate. Aphids were sieved into the wells directly onto the Parafilm. The infested plates were closed with a gel blotting card and a second plastic stencil and then turned upside down. The samples were assessed for mortality 5 days after infestation.

[7] = system: Plutella xylostella (Diamondback Moth); assay: Example B9: Plutella xylostella, artificial diet, 96-well; assay type: in vivo; settings: 216 h, application rate of 500 ppm, eggs/L1 larvae, 9 days after infestation
Procedure: Example B9: Plutella xylostella (Diamondback Moth)
96-well microtiter plates containing artificial diet were treated with aqueous test solutions, prepared from 10,000 ppm DMSO stock solutions, by a liquid handling robot. After drying, eggs (˜30 per well) were infested onto a netted lid which was suspended above the diet. The eggs hatch and L1 larvae move down to the diet. The samples were assessed for mortality 9 days after infestation.
The following compounds gave an effect of at least 80% mortality at an application rate of 500 ppm: […]

[8] = system: Myzus persicae (Green Peach Aphid); assay: Example B5: Myzus persicae, intrinsic activity; assay type: in vivo; settings: 120 h, test rate of 12 ppm, 5 days after infestation
Description: Example B5: Myzus persicae (Green Peach Aphid). Intrinsic Activity
Test compounds prepared from 10,000 ppm DMSO stock solutions were applied by pipette into 24-well microtiter plates and mixed with sucrose solution. The plates were closed with a stretched Parafilm. A plastic stencil with 24 holes was placed onto the plate and infested pea seedlings were placed directly on the Parafilm. The infested plate was closed with a gel blotting paper and another plastic stencil and then turned upside down. The samples were assessed for mortality 5 days after infestation.

[9] = system: Euschistus heros (Neotropical Brown Stink Bug); assay: Example B2: Euschistus heros, spray on soybean leaves; assay type: in vivo; settings: 120 h, application rate of 200 ppm, N2 nymphs, 5 days after infestation, read-out: control in at least one of the two categories (mortality or growth inhibition)
Procedure: Example B2: Euschistus heros (Neotropical Brown Stink Bug)
Soybean leaves on agar in 24-well microtiter plates were sprayed with aqueous test solutions prepared from 10,000 ppm DMSO stock solutions. After drying the leaves were infested with N2 nymphs. The samples were assessed for mortality and growth inhibition in comparison to untreated samples 5 days after infestation.
as §1

melting point | SMILES | percent control (mortality, anti-feedant effect or growth inhibition) at 200 ppm [1] | percent control (mortality or growth inhibition) at 200 ppm [2] | percent control (mortality or growth inhibition) at 200 ppm [3] | percent control (mortality, anti-feedant effect or growth inhibition) at 200 ppm [4] | percent control (mortality, anti-feeding or growth inhibition) at 12.5 ppm [5] | mortality at 50 ppm [6] | mortality at 500 ppm [7] | mortality at 12 ppm [8] | percent control (mortality or growth inhibition) at 200 ppm [9]
 | CC(NC(=O)c1cc(Cl)nc(Cl)c1)c1nccnc1-n1nccn1 (centres unmarked) [Compound P29, 2,6-dichloro-N-[1-[3-(triazol-2-yl)pyrazin-2-yl]ethyl]pyridine-4-carboxamide] | ≥ 80% | ≥ 80% | ≥ 80% | ≥ 80% | ≥ 80% | ≥ 80% | ≥ 80% |  | 
 | CC(NC(=O)c1cc(C(F)(F)F)cc(S(=O)(=O)C2CC2)c1)c1nccnc1-n1nccn1 (centres unmarked) [Compound P40, 3-cyclopropylsulfonyl-N-[1-[3-(triazol-2-yl)pyrazin-2-yl]ethyl]-5-(trifluoromethyl)benzamide] | ≥ 80% | ≥ 80% |  | ≥ 80% |  | ≥ 80% | ≥ 80% | ≥ 80% | 
 | CC(NC(=O)c1cc(C(F)F)cc(C(F)(F)F)c1)c1nccnc1-n1nccn1 (centres unmarked) [Compound P3, 3-(difluoromethyl)-N-[1-[3-(triazol-2-yl)pyrazin-2-yl]ethyl]-5-(trifluoromethyl)benzamide] | ≥ 80% | ≥ 80% | ≥ 80% | ≥ 80% |  | ≥ 80% | ≥ 80% | ≥ 80% | ≥ 80%
154 to 155 °C | Cc1cc(F)cc(C(=O)NC(C)c2nccnc2-n2nccn2)c1 (centres unmarked) [Compound P37, 3-fluoro-5-methyl-N-[1-[3-(triazol-2-yl)pyrazin-2-yl]ethyl]benzamide] |  |  |  |  |  |  |  |  | 
126 to 129 °C | CCc1cc(C(=O)NC(C)c2nccnc2-n2nccn2)cc(Cl)n1 (centres unmarked) [Compound P31, 2-chloro-6-ethyl-N-[1-[3-(triazol-2-yl)pyrazin-2-yl]ethyl]pyridine-4-carboxamide] |  |  |  |  |  |  |  |  | 
 | CC(NC(=O)c1cc(OC(F)F)cc(C(F)(F)F)c1)c1nccnc1-n1nccn1 (centres unmarked) [Compound P10, 3-(difluoromethoxy)-N-[1-[3-(triazol-2-yl)pyrazin-2-yl]ethyl]-5-(trifluoromethyl)benzamide] | ≥ 80% | ≥ 80% | ≥ 80% | ≥ 80% | ≥ 80% | ≥ 80% | ≥ 80% |  | 
129 to 130 °C | CCOc1cc(C(=O)NC(C)c2nccnc2-n2nccn2)cc(Cl)n1 (centres unmarked) [Compound P21, 2-chloro-6-ethoxy-N-[1-[3-(triazol-2-yl)pyrazin-2-yl]ethyl]pyridine-4-carboxamide] |  |  |  |  |  |  |  |  | 
142 to 145 °C | CCCc1cc(C(=O)NC(C)c2nccnc2-n2nccn2)cc(Cl)n1 (centres unmarked) [Compound P34, 2-chloro-6-propyl-N-[1-[3-(triazol-2-yl)pyrazin-2-yl]ethyl]pyridine-4-carboxamide] |  |  |  |  |  |  |  |  | 
128 to 129 °C | COc1cc(C)cc(C(=O)NC(C)c2nccnc2-n2nccn2)c1 (centres unmarked) [Compound P27, 3-methoxy-5-methyl-N-[1-[3-(triazol-2-yl)pyrazin-2-yl]ethyl]benzamide] |  |  |  |  |  |  |  |  | 
 | CC(NC(=O)c1cc(Br)cc(C(F)(F)F)c1)c1nccnc1-n1nccn1 (centres unmarked) [Compound P2, 3-bromo-N-[1-[3-(triazol-2-yl)pyrazin-2-yl]ethyl]-5-(trifluoromethyl)benzamide] | ≥ 80% | ≥ 80% | ≥ 80% | ≥ 80% | ≥ 80% | ≥ 80% | ≥ 80% |  | ≥ 80%
 | CC(NC(=O)c1cc(C(F)(F)F)cc(C(F)(F)F)c1)c1nccnc1-n1nccn1 (centres unmarked) [Compound P49, N-[1-[3-(triazol-2-yl)pyrazin-2-yl]ethyl]-3,5-bis(trifluoromethyl)benzamide] | ≥ 80% | ≥ 80% | ≥ 80% | ≥ 80% | ≥ 80% |  |  |  | ≥ 80%
 | CC(NC(=O)c1cc(Cl)cc(C(F)(F)F)c1)c1nccnc1-n1nccn1 (centres unmarked) [Compound P4, 3-chloro-N-[1-[3-(triazol-2-yl)pyrazin-2-yl]ethyl]-5-(trifluoromethyl)benzamide] | ≥ 80% | ≥ 80% | ≥ 80% | ≥ 80% | ≥ 80% | ≥ 80% | ≥ 80% |  | ≥ 80%
 | CC(NC(=O)c1cc(OC(F)(F)F)cc(C(F)(F)F)c1)c1nccnc1-n1nccn1 (centres unmarked) [Compound P5, N-[1-[3-(triazol-2-yl)pyrazin-2-yl]ethyl]-3-(trifluoromethoxy)-5-(tifluoromethyl)benzamide] | ≥ 80% | ≥ 80% | ≥ 80% | ≥ 80% | ≥ 80% |  | ≥ 80% |  | 
167 to 171 °C | Cc1cnc(C(C)NC(=O)c2cc(C(F)(F)F)cc(C(F)(F)F)c2)c(-n2ccnn2)n1 (centres unmarked) [Compound P43, N-[1-[5-methyl-3-(triazol-1-yl)pyrazin-2-yl]ethyl]-3,5-bis(trifluoromethyl)benzamide] |  |  |  |  |  |  |  |  | 

From patent publication US20220289715A1, “PESTICIDALLY ACTIVE PYRAZINE-AMIDE COMPOUNDS” (priority 2019, published 2022)
